Counter-ions that a name gives are not always drawn. Ends that are not written are not given here.
test: Solubility / hydrophilicity of mimotopic peptides, free or with amino-ADOOA-ADOOA linker; type: physicochemical; conditions: not given
Description: Dimeric IgE complexing hinges upon disruption of the overhanging oligodendrocyte membrane surface and facilitated intracellular autoantibody inflow. […] Table 4a lists structurally unique, mimotopic, peptides serving as diagnostic and therapeutic antigens. […] Peptides used for initial diagnosis can be of maximum, unique length (column 3) or can be fractionated into pentameric, single epitope equivalents (column 5). […] The amide group is used for covalent Coupling to microplate wells. The 3,6-dioxaoctanoic acid2 construct, being very hydrophilic, solubilizes most al peptides, especially those that are relatively hydrophobic. The listed myelin, dimer-cornerstone peptide homologues (bold-highlighted) for MS therapy are useful because of their in-vivo: (a) net hydrophilicity for adequate solubility; […] The linker provides both increased hydrophilicity for enhanced solubility and serves as a point of attachment onto microtiter test plate wells. The peptide […] NO: 3) is an example of a soluble short peptide that is comprised of a singularly unique MOG surface pentamer, […]

Row | Molecule | hydrophilicity / solubilization when coupled with amino-ADOOA-ADOOA linker | aggregation tendency | solubility of short therapeutic peptide
1 | DNTFKD [DNTFKD] | sufficiently hydrophilic |  | 
2 | KDSHHPA [Lys Asp Ser His His Pro Ala] | solubilize readily |  | 
3 | PKNAW [PKNAW] | sufficiently hydrophilic |  | 
4 | YKDSHHPA | solubilize readily |  | 
5 | NLHRTFE [Asn Leu His Arg Thr Phe Glu] | sufficiently hydrophilic |  | 
6 | LQTIQE [LQTIQE] | sufficiently hydrophilic |  | 
7 | Lys Gly Thr Gln Phe (KGTQF; listed as Homo sapiens) [KTGQF] |  | dual molecule aggregate-forming tendencies | 
8 | DNEVFGEA | sufficiently hydrophilic |  | 
9 | QDTAVT [QDTAVT] | sufficiently hydrophilic |  | 
10 | DHSYQE [DHSYQE] |  |  | soluble
11 | HGRTQ [HGRTQ] | solubilize readily |  | 

test: not given; conditions: Tables 3a-3e; from cited literature; CD4 T-helper cells; cited from earlier work

Row | Molecule | Immunosuppressive Effects
12 | Fc1ccc([C@@H]2CCNC[C@H]2COc2ccc3c(c2)OCO3)cc1 [Paroxetine] | Decreases CD4 T-Helper Cells.

same assay, conditions: Tables 3a-3e; from cited literature; cited from earlier work

Row | Molecule | Immunosuppressive Effects
13 | CNCCC(Oc1ccc(C(F)(F)F)cc1)c1ccccc1 (stereo not drawn) [Fluoxethine] | Decreases T Lymphocyte
14 | CC(C)c1c(C(=O)Nc2ccccc2)c(-c2ccccc2)c(-c2ccc(F)cc2)n1CC[C@@H](O)C[C@@H](O)CC(=O)O [Atorvastatin] | Increases in IL-10 Production.
15 | Cc1nnc2n1-c1ccc(Cl)cc1C(c1ccccc1)=NC2 [Alprazolam] | Inhibits proliferative responses
16 | N[C@@H](Cc1cc(I)c(Oc2cc(I)c(O)c(I)c2)c(I)c1)C(=O)O [Levoxyl, Levothyroxine] | Inhibits Cytokine
17 | COc1ccc(C(CN(C)C)C2(O)CCCCC2)cc1 (stereo not drawn) [Venlafaxine] | Suppresses pro-Inflammatory
18 | CC(C)c1nc(N(C)S(C)(=O)=O)nc(-c2ccc(F)cc2)c1/C=C/[C@@H](O)C[C@@H](O)CC(=O)O [Rosuvastatin] | Post-Transcriptional Level
19 | CN1C(=O)CN=C(c2ccccc2)c2cc(Cl)ccc21 [Diazepam] | Markedly Suppresses Antigen-
20 | O=C1NC(=O)C(c2ccccc2)(c2ccccc2)N1 [Dilantin, Phenytoin sodium] | Humoral Immune Suppressant
21 | Nc1ccc(O)c(C(=O)O)c1 [Mesalazine] | Potent and Specific Inhibitor
22 | NS(=O)(=O)Cc1noc2ccccc12 [Zonisamide] | Suppression of IFN-gamma

same assay, conditions: Tables 3a-3e; from cited literature; hydrochloride; antigen-specific TH1 responses; cited from earlier work

Row | Molecule | Immunosuppressive Effects
23 | CN[C@H]1CC[C@@H](c2ccc(Cl)c(Cl)c2)c2ccccc21 [Sertraline hydrochloride] | Suppression of Antigen-

same assay, conditions: Tables 3a-3e; from cited literature; splenocyte viability; cited from earlier work

Row | Molecule | Immunosuppressive Effects
24 | Fc1ccc([C@@H]2CCNC[C@H]2COc2ccc3c(c2)OCO3)cc1 [Paroxetine] | Inhibit Splenocyte Viability.

From patent US20140134197A1, “Mimotopic Peptides for the Diagnosis and Treatment of Multiple sclerosis” (priority 2011, published 2014)
